# In patent US6610685B2, “Fused indole derivatives” (Hoffmann-La Roche Inc., priority 2000, dated 2003):
# Read-outs that look alike come from different tables or passages of the source.
# Legend:
# 5-HT2A receptor [1] = target: T1, 5-HT2A receptor (Homo sapiens, UniProt P28223); assay: Functional activity, FLIPR calcium assay, CHO cells expressing human 5-HT2A; assay type: cell-based; design: expressed in transfected cells; host or cells: CHO cells
# Method: (§1) The functional activity of compounds of formula (I) was assayed using a Fluorimetric Imaging Plate reader (FLIPR). CHO cells expressing the human 5-HT2C or human 5-HT2A receptors were counted and plated into standard 96 well microtitre plates on the day before testing to give a confluent monolayer. The cells were then dye loaded with the calcium sensitive dye, Fluo-3-AM. Unincorporated dye was removed using an automated cell washer to leave a total volume of 100 μL/well of assay buffer (Hanks balanced salt solution containing 20 mM Hepes and 2.5 mM probenecid). The drug (dissolved in 50 μL of the assay buffer) was added at a rate of 70 μL/sec to each well of the FLIPR 96 well plate during fluorescence measurements. The measurements were taken at 1 sec intervals and the maximum fluorescent signal was measured (approx 10-15 secs after drug addition) and compared with the response produced by 10 μM 5-HT (defined as 100%) to which it was expressed as a percentage response (relative efficacy). Dose response curves were constructed using Graphpad Prism (Graph Software Inc.).
# human 5-HT2B receptors = target: T2, human 5-HT2B receptors (Homo sapiens, UniProt P41595); assay: Binding to the 5-HT2B receptor, Method (b), [3H]-5-HT
# T2 construct: expressed in transfected cells; host or cells: CHO cell line
# T2 sequence (P41595 whole entry): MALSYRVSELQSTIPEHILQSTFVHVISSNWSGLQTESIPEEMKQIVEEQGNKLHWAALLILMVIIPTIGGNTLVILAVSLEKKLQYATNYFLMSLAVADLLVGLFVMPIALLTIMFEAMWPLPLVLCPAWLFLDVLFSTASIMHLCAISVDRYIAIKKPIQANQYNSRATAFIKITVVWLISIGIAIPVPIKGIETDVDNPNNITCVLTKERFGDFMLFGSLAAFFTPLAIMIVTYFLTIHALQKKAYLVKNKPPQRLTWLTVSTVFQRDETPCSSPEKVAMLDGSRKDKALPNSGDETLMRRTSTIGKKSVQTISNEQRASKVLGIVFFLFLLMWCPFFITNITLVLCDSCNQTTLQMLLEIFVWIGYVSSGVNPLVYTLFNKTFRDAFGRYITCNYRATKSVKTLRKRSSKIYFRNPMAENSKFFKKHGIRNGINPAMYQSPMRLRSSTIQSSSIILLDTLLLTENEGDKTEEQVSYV
# Method: (§2) The binding of compounds of formula (I) to serotonin receptors was determined in vitro by standard methods. The preparations were investigated in accordance with the assays given hereinafter.
# Method (b): For the binding to the 5-HT2B receptor the 5-HT2B receptors were radiolabeled with [^3H]-5-HT. The affinity of the compounds for human 5-HT2B receptors in a CHO cell line was determined according to the procedure of K. Schmuck, C. Ullmer, P. Engels and H. Lubbert, FEBS Lett., 1994, 342, 85-90.
# (§3) The Ki values are calculated according to the method of Cheng, Yung-Chi, and Prusoff, W. H. Biochem. Pharmacol. 1973, 22(23) 3099-108.
# [2] = Pharmacodynamic study: food intake up to 16 hours after compound administration; assay type: in vivo, rats; details: 30 mg/kg p.o.
# Method: The in vivo activity of compounds of formula (I) was assayed for ability to regulate feeding behaviour during a time period up to 16 hours after compound administration.
# The test compound was assessed following acute administration. Each study utilised a between-subjects design (typically n=8) and compared the effects of a single dose of the test agent to those of vehicle.
# Example 1 was administered at a dose of 30 mg/kg p.o. in a distilled water vehicle 2, 4, 8, or 16 hours prior to food presentation. At the time of food presentation (standard laboratory chow) all animals had been subjected to a 23-hour food deprivation period. Water was freely available throughout the study. The amount of food consumed over 1 hour was determined. Food intake data were subjected to two-way analysis of variance (ANOVA) with drug treatment as a between-subjects factor and injection-test-interval as a between subjects factor. Newman-Keuls tests were performed to assess whether differences between the vehicle mean and the drug-treated mean at each level of injection-test-interval were significant. All statistical analyses were performed using Statistica Software, Version 5.0 (Statsoft Inc.) and Microsoft Excel 7.0 (Microsoft Corp.).
# 5-HT2C receptor [3] = target: T3, 5-HT2C receptor (Homo sapiens, UniProt P28335); assay: Binding to the 5-HT2C receptor, Method (a), [3H]-5-HT; design: expressed in transfected cells; host or cells: CHO cell line
# T3 sequence (P28335 33-458): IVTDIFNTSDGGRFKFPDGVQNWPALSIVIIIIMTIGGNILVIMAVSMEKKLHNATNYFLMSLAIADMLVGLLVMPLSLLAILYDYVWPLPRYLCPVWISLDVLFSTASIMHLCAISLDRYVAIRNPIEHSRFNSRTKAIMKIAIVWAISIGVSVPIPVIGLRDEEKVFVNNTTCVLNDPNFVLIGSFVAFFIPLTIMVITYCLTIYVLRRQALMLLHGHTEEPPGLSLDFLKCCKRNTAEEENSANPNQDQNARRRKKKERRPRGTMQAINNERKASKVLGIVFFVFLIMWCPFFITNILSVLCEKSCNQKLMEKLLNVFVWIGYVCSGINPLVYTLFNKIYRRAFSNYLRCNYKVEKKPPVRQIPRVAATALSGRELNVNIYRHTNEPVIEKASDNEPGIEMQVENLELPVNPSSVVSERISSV
# Method: as §2
# Method (a): For the binding to the 5-HT2C receptor the 5-HT2C receptors were radiolabeled with [^3H]-5-HT. The affinity of the compounds for 5-HT2C receptors in a CHO cell line was determined according to the procedure of D. Hoyer, G. Engel and H. O. Kalkman, European J. Pharmacol., 1985, 118, 13-23.
# as §3
# 5-HT2C receptor [4] = target: T3, 5-HT2C receptor; assay: Functional activity, FLIPR calcium assay, CHO cells expressing human 5-HT2C; assay type: cell-based; design: expressed in transfected cells; host or cells: CHO cells; details: for h5-HT2c Relative Efficacy: relative to response of 10 μM 5-HT (100%)
# Method: as §1
# 5-HT2A receptor [5] = target: T1, 5-HT2A receptor; assay: Binding to the 5-HT2A receptor, Method (c), [125I]-DOI; design: expressed in transfected cells; host or cells: CHO cell line
# Method: as §2
# Method (c): For the binding to the 5-HT2A receptor the 5-HT2A receptors were radiolabeled with [^125I]-DOI. The affinity of the compounds for 5-HT2A receptors in a CHO cell line was determined according to the procedure of D. J. McKenna and S. J. Peroutka, J. Neurosci., 1989, 9, 3482-90.
# as §3
# [6] = literature, cited from earlier work
# [7] = literature; cited from earlier work
# T1 sequence (P28223 whole entry): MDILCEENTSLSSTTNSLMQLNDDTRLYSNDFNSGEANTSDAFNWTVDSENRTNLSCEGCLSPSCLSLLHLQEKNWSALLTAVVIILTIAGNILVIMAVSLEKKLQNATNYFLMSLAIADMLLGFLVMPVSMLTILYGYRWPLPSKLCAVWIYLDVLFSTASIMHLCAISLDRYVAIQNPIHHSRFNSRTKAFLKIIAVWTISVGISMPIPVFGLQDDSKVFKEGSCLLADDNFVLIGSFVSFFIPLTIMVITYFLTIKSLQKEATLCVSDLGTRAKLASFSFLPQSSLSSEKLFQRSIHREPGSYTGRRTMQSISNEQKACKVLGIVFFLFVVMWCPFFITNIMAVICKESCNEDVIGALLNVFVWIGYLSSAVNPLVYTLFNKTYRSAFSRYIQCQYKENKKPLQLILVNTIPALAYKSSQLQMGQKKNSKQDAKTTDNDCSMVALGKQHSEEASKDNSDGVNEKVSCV
smiles,measurement,setting,value
COCCCCOc1ccc2c(c1)c(C[C@H](C)N)c1n2CCC1.Cl,melting point,,107 °C
CCOCCOc1ccc2c(c1)c(C[C@H](C)N)c1n2CCC1.Cl,melting point,,170 to 172 °C
CCOCCCOc1ccc2c(c1)c(C[C@H](C)N)c1n2CCC1.Cl,melting point,,132 °C
"CCOc1ccc2c(c1)c(C[C@H](C)N)c1n2CCC1 [Example 1, (S)-2-(6-ethoxy-2,3-dihydro-1H-3a-aza-cyclopenta[a]inden-8-yl)-1-methyl-ethylamine]",h5-HT2A Relative Efficacy,5-HT2A receptor [1]; relative to response of 10 μM 5-HT (100%),33%
same,Ki,human 5-HT2B receptors,830 nM
same,duration of action in reducing rat food intake,[2],at least 16 hours
same,Ki,"5-HT2C receptor [3]; Method (a), [3H]-5-HT, CHO cell line, Ki by Cheng-Prusoff, read-out: Ki (2C)",11 nM
same,h5-HT2c Relative Efficacy,5-HT2C receptor [4],87%
same,Ki,5-HT2A receptor [5],410 nM
"COCCOc1ccc2c(c1)c(C[C@H](C)N)c1n2CCC1 [Example 2, (S)-2-[6-(2-methoxy-ethoxy)-2,3-dihydro-1H-3a-aza-cyclopenta[a]inden-8-yl]-1-methyl-ethyl amine]",Ki,"human 5-HT2B receptors; Method (b), [3H]-5-HT, human 5-HT2B in CHO cell line, Ki by Cheng-Prusoff, read-out: Ki (2B)",480 nM
same,Ki,5-HT2C receptor [3],19 nM
same,Ki,"5-HT2A receptor [5]; Method (c), [125I]-DOI, CHO cell line, Ki by Cheng-Prusoff, read-out: Ki (2A)",520 nM
"C[C@H](N)Cc1c2n(c3ccc(OC4CC4)cc13)CCC2 [Example 3, (S)-2-(6-cyclopropoxy-2,3-dihydro-1H-3a-aza-cyclopenta[a]inden-8-yl)-1-methyl-ethylamine]",EC50,"5-HT2A receptor [1]; FLIPR, CHO cells, read-out: h5-HT2A EC50",> 1000 nM
same,EC50,"5-HT2C receptor [4]; FLIPR, CHO cells, read-out: h5-HT2c EC50",3 nM
same,h5-HT2c Relative Efficacy,5-HT2C receptor [4],84%
"Clc1cccc(N2CCNCC2)c1 [mCPP, m-chlorophenylpiperazine]",food intake in female volunteers,[6]; single dose,decreased food intake
same,appetite and body weight of obese male and female subjects,[6]; subchronic treatment for a 14 day period,decreased the appetite and body weight
same,behavioural satiety sequence,[7],accelerate the appearance of the behavioural satiety sequence
same,food intake in rats,[7],reduce food intake
